According to US12319655B2, “RAF kinase inhibitors and methods of use thereof” (Deciphera Pharmaceuticals, LLC, priority 2021, dated 2025):

How the values were obtained:
[1] = target: B-Raf kinase (SEQ. ID NO: 2) (Homo sapiens (Human), UniProt P15056); assay: Biochemical Assay for B-Raf (1); conditions: Table J, assay version (1); read-out: BRAF (1) IC50
Method in brief: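 Continuous PK/LDH-coupled NADH oxidation assay, A340 read for 6 h at 30° C., with 0.13 nM B-Raf, 30.1 nM MEK substrate and 1 mM ATP in Tris pH 7.5, MgCl2, DTT, detergents, 1% DMSO. Rate taken from 4–5 h window; percent inhibition vs no-compound and known-inhibitor controls; four-parameter fit gives IC50.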

[2] = target: C-Raf kinase (SEQ. ID NO: 3) (Homo sapiens (Human), UniProt P04049, Y340D/Y341D); assay: Biochemical Assay for C-Raf (1); conditions: Table J, assay version (1); read-out: CRAF (1) IC50
Method in brief: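 Coupled pyruvate kinase/LDH assay tracking NADH oxidation at 340 nm, with 0.43 nM C-Raf, 30.1 nM MEK and 1 mM ATP in pH 7.5 Tris buffer (15 mM MgCl2, 1% DMSO final). Read continuously for 6 h at 30 °C, rate taken from the 4–5 h window. IC50 from four-parameter fit of percent inhibition.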

[3] = target: B-Raf (V600E) (SEQ. ID NO: 4) kinase (Homo sapiens (Human), UniProt P15056, V600E); assay: Biochemical Assay for B-Raf (V600E) (1); conditions: Table J, BRAF V600E, assay version (1); read-out: BRAF VE (1) IC50
Method in brief: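 Coupled pyruvate kinase/lactate dehydrogenase assay: 0.03 nM B-Raf V600E, 30.1 nM MEK, 1 mM ATP, pH 7.5 Tris/MgCl2 buffer, 1% DMSO. NADH oxidation followed at 340 nm for 6 h at 30 °C; rate from 3–4 h converted to percent inhibition, IC50 by four-parameter fit.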

A375 cells = assay: A375 Cell Proliferation Assay (1); type: cell-based; conditions: Homo sapiens, A-375
Method in brief: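 Resazurin fluorescence (excitation 540 nm, emission 600 nm, after a further 5-6 h) gave IC50s from triplicate compound dilution series.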

B-Raf kinase (SEQ. ID NO: 2), sequence (P15056 416-766): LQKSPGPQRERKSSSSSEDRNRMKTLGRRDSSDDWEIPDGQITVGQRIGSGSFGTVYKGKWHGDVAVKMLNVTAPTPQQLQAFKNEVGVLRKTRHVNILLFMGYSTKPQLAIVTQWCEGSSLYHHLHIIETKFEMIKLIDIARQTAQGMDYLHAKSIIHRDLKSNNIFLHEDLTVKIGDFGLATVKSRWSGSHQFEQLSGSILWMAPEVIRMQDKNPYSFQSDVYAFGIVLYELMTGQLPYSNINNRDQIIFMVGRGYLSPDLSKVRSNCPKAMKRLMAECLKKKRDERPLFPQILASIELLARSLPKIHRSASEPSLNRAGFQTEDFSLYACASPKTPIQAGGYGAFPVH
C-Raf kinase (SEQ. ID NO: 3), sequence (P04049 307-648 Y340D/Y341D): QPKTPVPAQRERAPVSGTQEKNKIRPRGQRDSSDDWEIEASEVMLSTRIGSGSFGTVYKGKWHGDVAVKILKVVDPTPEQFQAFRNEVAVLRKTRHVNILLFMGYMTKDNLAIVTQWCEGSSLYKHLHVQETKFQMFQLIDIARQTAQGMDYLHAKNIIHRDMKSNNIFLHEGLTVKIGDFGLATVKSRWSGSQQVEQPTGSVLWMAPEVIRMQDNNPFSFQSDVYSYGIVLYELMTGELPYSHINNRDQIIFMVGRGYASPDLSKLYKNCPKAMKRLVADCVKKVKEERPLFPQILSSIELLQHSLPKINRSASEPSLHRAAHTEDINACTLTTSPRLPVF
B-Raf (V600E) (SEQ. ID NO: 4) kinase, sequence (P15056 416-766 V600E): as the sequence (P15056 416-766) above, with V185E counted along it

IC50 [1] [nM]	IC50 [2] [nM]	IC50 [3] [nM]	IC50 (A375 cells) [nM]	SMILES
1000 to 10000	1000 to 10000	1000 to 10000	1000 to 10000	CNC(=O)c1cc(-c2cnnc(-c3cc(NC(=O)CCC(C)(C)C#N)cnc3C)c2)ccn1 [Example 333]
100 to 500	≤ 100	≤ 100	1000 to 10000	CO[C@H]1CC[C@H](C(=O)Nc2ccc(C)c(-c3ccnc(-c4ccnc(NC(=O)C5CC5)c4)n3)c2)CC1 [Example 341]
≤ 100	≤ 100	≤ 100	1000 to 10000	Cc1ccc(NC(=O)C2CN(C)CCO2)cc1-c1cccc(-c2cc(NC(=O)C3CC3)ncn2)c1 (centres unmarked) [Example 346]
500 to 1000	100 to 500	≤ 100	1000 to 10000	CO[C@H]1CC[C@H](C(=O)Nc2cnc(C)c(-c3cccc(-c4cc(NC(=O)C5CC5)ncn4)c3)c2)CC1 [Example 347]
100 to 500	≤ 100	≤ 100	1000 to 10000	Cc1ncc(NC(=O)C2CCOC(C)(C)C2)cc1-c1cccc(-c2cc(NC(=O)C3CC3)ncn2)c1 (centres unmarked) [Example 348]
100 to 500	≤ 100	500 to 1000	1000 to 10000	CNC(=O)c1cc(-c2cc(-c3cc(NC(=O)CCC(C)(C)C#N)ccc3C)ccn2)ccn1 [Example 357]
≤ 100	≤ 100	500 to 1000	1000 to 10000	CNC(=O)c1cc(-c2cc(-c3cc(NC(=O)COCC4CC4)ccc3C)ccn2)ccn1 [Example 358]
1000 to 10000	1000 to 10000	1000 to 10000	1000 to 10000	COC(=O)Nc1cc(-c2cnnc(-c3cc(NC(=O)CN4CCCC4)cnc3C)c2)ccn1 [Example 359]
500 to 1000	100 to 500	1000 to 10000	1000 to 10000	COC(=O)Nc1cc(-c2cnnc(-c3cc(NC(=O)COCC4CC4)ccc3C)c2)ccn1 [Example 360]
100 to 500	≤ 100	100 to 500	1000 to 10000	COC(=O)Nc1cc(-c2cnnc(-c3cc(NC(=O)c4ccnc(C(C)(C)F)c4)cnc3C)c2)ccn1 [Example 361]
100 to 500	≤ 100	1000 to 10000	1000 to 10000	COC(=O)Nc1cc(-c2cnnc(-c3cc(NC(=O)c4ccnc(C5CC5)c4)cnc3C)c2)ccn1 [Example 362]
500 to 1000	100 to 500	1000 to 10000	1000 to 10000	COC(=O)Nc1cc(-c2cnnc(-c3cc(NC(=O)c4ccnc(C(F)F)c4)cnc3C)c2)ccn1 [Example 363]
100 to 500	100 to 500	100 to 500	1000 to 10000	CNC(=O)c1cc(-c2cnnc(-c3cc(NC(=O)c4ccnc(C(F)(F)F)c4)ccc3C)c2)ccn1 [Example 364]
100 to 500	100 to 500	500 to 1000	1000 to 10000	COCCNC(=O)c1cc(-c2cnnc(-c3cc(NC(=O)c4cccc(C5CC5)c4)ccc3C)c2)ccn1 [Example 365]
100 to 500	100 to 500	100 to 500	1000 to 10000	CNC(=O)c1cc(-c2cnnc(-c3cc(NC(=O)c4cn(C(C)(C)C)nn4)ccc3C)c2)ccn1 [Example 366]

Continued, compound first:

SMILES	IC50 [1] [nM]	IC50 [2] [nM]	IC50 [3] [nM]	IC50 (A375 cells) [nM]
COC(=O)Nc1cc(-c2cnnc(-c3cc(NC(=O)c4ccnc(C(C)(C)C#N)c4)cnc3C)c2)ccn1 [Example 306]	100 to 500	100 to 500	100 to 500	1000 to 10000
Cc1cc(F)c(NC(=O)c2ccnc(C(F)F)c2)cc1-c1ccnc(-c2ccnc(NC(=O)C3CC3)c2)c1 [Example 307]	≤ 100	≤ 100	≤ 100	500 to 1000
COC(=O)Nc1cc(-c2cc(-c3cc(NC(=O)c4ccnc(C(C)(C)C#N)c4)c(F)cc3C)ccn2)ccn1 [Example 308]	≤ 100	≤ 100	≤ 100	≤ 100
CNC(=O)c1cc(-c2cnnc(-c3cc(NC(=O)c4ccnc(C(C)(C)F)c4)cnc3C)c2)ccn1 [Example 309]	1000 to 10000	100 to 500	100 to 500	1000 to 10000
Cc1ncc(NC(=O)c2ccnc(C(C)(C)F)c2)cc1-c1cc(-c2ccnc(NC(=O)C3CC3)c2)cnn1 [Example 310]	≤ 100	≤ 100	≤ 100	100 to 500
COC(=O)Nc1cc(-c2cnnc(-c3cc(NC(=O)c4cccc(C(C)(C)C#N)c4)ccc3C)c2)ccn1 [Example 311]	≤ 100	≤ 100	≤ 100	≤ 100
COC(=O)Nc1cc(-c2cc(-c3cc(NC(=O)c4ccnc(C(F)(F)F)c4)cnc3C)ccn2)ccn1 [Example 312]	≤ 100	≤ 100	500 to 1000	100 to 500
COC(=O)Nc1cc(-c2cc(-c3cc(NC(=O)c4ccnc(C(F)F)c4)cnc3C)ccn2)ccn1 [Example 313]	≤ 100	≤ 100	1000 to 10000	1000 to 10000
CNC(=O)c1cc(-c2cnnc(-c3cc(NC(=O)c4ccnc(C(C)(C)C#N)c4)ccc3C)c2)ccn1 [Example 314]	100 to 500	100 to 500	≤ 100	100 to 500
Cc1ccc(NC(=O)c2ccnc(C(C)(C)F)c2)cc1-c1cc(-c2ccnc(NC(=O)C3CC3)c2)cnn1 [Example 315]	≤ 100	≤ 100	≤ 100	≤ 100
CNC(=O)c1cc(-c2cnnc(-c3cc(NC(=O)c4ccnc(C(C)(C)C#N)c4)cnc3C)c2)ccn1 [Example 316]	500 to 1000	100 to 500	100 to 500	1000 to 10000
CNC(=O)c1cc(-c2cnnc(-c3cc(NC(=O)c4ccnc(C5CC5)c4)cnc3C)c2)ccn1 [Example 317]	500 to 1000	100 to 500	1000 to 10000	1000 to 10000
CNC(=O)c1cc(-c2cnnc(-c3cc(NC(=O)c4ccnc(C(F)(F)F)c4)cnc3C)c2)ccn1 [Example 318]	500 to 1000	100 to 500	1000 to 10000	1000 to 10000
COC(C)(C)c1cc(C(=O)Nc2ccc(C)c(-c3cc(-c4ccnc(NC(=O)C5CC5)c4)cnn3)c2)ccn1 [Example 319]	≤ 100	≤ 100	≤ 100	≤ 100
Cc1ccc(NC(=O)c2cn(C(C)C)nn2)cc1-c1cc(-c2ccnc(NC(=O)C3CC3)c2)cnn1 [Example 320]	≤ 100	≤ 100	100 to 500	1000 to 10000
Cc1ccc(NC(=O)c2cnn(C(C)(C)C)c2)cc1-c1cc(-c2ccnc(NC(=O)C3CC3)c2)cnn1 [Example 321]	≤ 100	≤ 100	≤ 100	100 to 500
CNC(=O)c1cc(-c2cnnc(-c3cc(NC(=O)c4ccc(Cl)c(OC)c4)cnc3C)c2)ccn1 [Example 322]	1000 to 10000	1000 to 10000	1000 to 10000	1000 to 10000
COC(=O)Nc1cc(-c2cc(-c3cc(NC(=O)c4ccnc(C(C)(C)F)c4)cnc3C)ccn2)ccn1 [Example 323]	≤ 100	≤ 100	≤ 100	100 to 500
CNC(=O)c1cc(-c2cnnc(-c3cc(NC(=O)c4ccnc(C(C)(C)F)c4)ccc3C)c2)ccn1 [Example 325]	100 to 500	100 to 500	≤ 100	100 to 500
CNC(=O)c1cc(-c2cnnc(-c3cc(NC(=O)c4ccnc(C5CC5)c4)ccc3C)c2)ccn1 [Example 326]	100 to 500	≤ 100	100 to 500	1000 to 10000
CNC(=O)c1cc(-c2cnnc(-c3cc(NC(=O)c4ccnc(C(F)F)c4)ccc3C)c2)ccn1 [Example 327]	100 to 500	≤ 100	500 to 1000	1000 to 10000
CNC(=O)c1cc(-c2cnnc(-c3cc(NC(=O)c4ccnc(C(C)(C)OC)c4)ccc3C)c2)ccn1 [Example 328]	500 to 1000	100 to 500	≤ 100	100 to 500
CNC(=O)c1cc(-c2cnnc(-c3cc(NC(=O)c4ccc(F)c(C(F)(F)F)c4)ccc3C)c2)ccn1 [Example 329]	500 to 1000	≤ 100	≤ 100	500 to 1000
CNC(=O)c1cc(-c2cnnc(-c3cc(NC(=O)c4ccnc(C(F)F)c4)cnc3C)c2)ccn1 [Example 330]	500 to 1000	100 to 500	1000 to 10000	1000 to 10000
Cc1ccc(NC(=O)c2ccnc(C3CC3)c2)cc1-c1cc(-c2ccnc(NC(=O)C3CC3)c2)cnn1 [Example 331]	≤ 100	≤ 100	≤ 100	100 to 500
Cc1ccc(NC(=O)c2ccnc(S(C)(=O)=O)c2)cc1-c1cc(-c2ccnc(NC(=O)C3CC3)c2)cnn1 [Example 332]	≤ 100	≤ 100	≤ 100	1000 to 10000
